Numbers after ± are expanded uncertainties.
Test: molar heat capacity at constant pressure
Details: 100 kPa, Crystal, DSC

O=C(O)c1cc(O)c(O)c(O)c1 [3,4,5-trihydroxybenzoic acid]
Details | molar heat capacity at constant pressure [J/K/mol]
263.15 K | 178.8 ± 8.3
264.15 K | 179.31 ± 8.3
265.15 K | 179.82 ± 8.3
266.15 K | 180.5 ± 8.4
267.15 K | 181.18 ± 8.4
268.15 K | 181.86 ± 8.4
269.15 K | 182.54 ± 8.5
270.15 K | 183.05 ± 8.5
271.15 K | 183.73 ± 8.5
272.15 K | 184.41 ± 8.6
273.15 K | 184.92 ± 8.6
274.15 K | 185.77 ± 8.6
275.15 K | 185.6 ± 8.6
276.15 K | 186.96 ± 8.7
277.15 K | 187.3 ± 8.7
278.15 K | 188.15 ± 8.7
279.15 K | 188.49 ± 8.7
280.15 K | 189 ± 8.8
281.15 K | 189.34 ± 8.8
282.15 K | 189.85 ± 8.8
283.15 K | 190.36 ± 8.8
284.15 K | 191.21 ± 8.9
285.15 K | 191.55 ± 8.9
286.15 K | 192.24 ± 8.9
287.15 K | 193.09 ± 8.9
288.15 K | 193.6 ± 9
289.15 K | 194.28 ± 9
290.15 K | 194.79 ± 9
291.15 K | 195.64 ± 9.1
292.15 K | 196.32 ± 9.1
293.15 K | 197 ± 9.1
294.15 K | 197.51 ± 9.2
295.15 K | 198.19 ± 9.2
296.15 K | 198.7 ± 9.2
297.15 K | 199.38 ± 9.2
298.15 K | 199.55 ± 9.2
299.15 K | 200.06 ± 9.3
300.15 K | 200.57 ± 9.3
301.15 K | 201.25 ± 9.3
302.15 K | 201.76 ± 9.4
303.15 K | 202.44 ± 9.4
304.15 K | 203.12 ± 9.4
305.15 K | 203.8 ± 9.4
306.15 K | 204.31 ± 9.5
307.15 K | 204.65 ± 9.5
308.15 K | 205.33 ± 9.5
309.15 K | 206.18 ± 9.6
310.15 K | 206.7 ± 9.6
311.15 K | 207.04 ± 9.6
312.15 K | 207.38 ± 9.6
313.15 K | 208.23 ± 9.7
314.15 K | 208.91 ± 9.7
315.15 K | 209.08 ± 9.7
316.15 K | 209.76 ± 9.7
317.15 K | 210.61 ± 9.8
318.15 K | 211.12 ± 9.8
319.15 K | 211.46 ± 9.8
320.15 K | 211.8 ± 9.8
321.15 K | 212.14 ± 9.8
322.15 K | 212.99 ± 9.9
323.15 K | 211.97 ± 9.8
324.15 K | 212.22 ± 9.8
325.15 K | 212.9 ± 9.9
326.15 K | 213.59 ± 9.9
327.15 K | 214.27 ± 9.9
328.15 K | 214.61 ± 9.9
329.15 K | 215.09 ± 10
330.15 K | 215.6 ± 10
331.15 K | 216.11 ± 10
332.15 K | 216.39 ± 10
333.15 K | 216.9 ± 10
334.15 K | 217.47 ± 10
335.15 K | 217.92 ± 10
336.15 K | 217.16 ± 10
337.15 K | 217.71 ± 10
338.15 K | 218.35 ± 10
339.15 K | 218.99 ± 10
340.15 K | 219.58 ± 10
341.15 K | 220.09 ± 10
342.15 K | 220.69 ± 10
343.15 K | 221.58 ± 10
344.15 K | 220.47 ± 10
345.15 K | 220.64 ± 10
346.15 K | 221.55 ± 10
347.15 K | 222.29 ± 10
348.15 K | 222.74 ± 10
349.15 K | 223.31 ± 10
350.15 K | 223.76 ± 10
351.15 K | 224.44 ± 10
352.15 K | 225.58 ± 10
353.15 K | 224.69 ± 10
354.15 K | 225.11 ± 10
355.15 K | 225.75 ± 10
356.15 K | 226.47 ± 10
357.15 K | 226.9 ± 11
358.15 K | 227.28 ± 11
359.15 K | 227.92 ± 11
360.15 K | 228.68 ± 11
361.15 K | 229.15 ± 11
362.15 K | 229.7 ± 11
363.15 K | 229.83 ± 11
364.15 K | 230.21 ± 11
365.15 K | 230.81 ± 11
366.15 K | 231.19 ± 11
367.15 K | 233.29 ± 11
368.15 K | 233.91 ± 11
369.15 K | 234.54 ± 11
370.15 K | 234.94 ± 11
371.15 K | 235.6 ± 11
372.15 K | 236.24 ± 11
373.15 K | 236.91 ± 11
374.15 K | 237.55 ± 11
375.15 K | 238.16 ± 11
376.15 K | 238.86 ± 11
377.15 K | 239.45 ± 11
378.15 K | 240.16 ± 11
379.15 K | 240.81 ± 11
380.15 K | 241.44 ± 11
381.15 K | 242.11 ± 11
382.15 K | 242.78 ± 11
383.15 K | 243.42 ± 11
384.15 K | 244.06 ± 11
385.15 K | 244.7 ± 11
386.15 K | 245.37 ± 11
387.15 K | 246.02 ± 11
388.15 K | 246.65 ± 11
389.15 K | 247.32 ± 11
390.15 K | 248.01 ± 12
391.15 K | 248.58 ± 12
392.15 K | 249.14 ± 12
393.15 K | 249.71 ± 12
394.15 K | 250.27 ± 12
395.15 K | 250.84 ± 12
396.15 K | 251.4 ± 12
397.15 K | 251.97 ± 12
398.15 K | 252.44 ± 12
399.15 K | 253.11 ± 12
400.15 K | 253.68 ± 12
401.15 K | 254.24 ± 12
402.15 K | 254.81 ± 12
403.15 K | 255.1 ± 12
404.15 K | 255.93 ± 12
405.15 K | 256.5 ± 12
406.15 K | 257.08 ± 12
407.15 K | 257.65 ± 12
408.15 K | 258.22 ± 12
409.15 K | 258.78 ± 12
410.15 K | 259.34 ± 12
411.15 K | 259.92 ± 12
412.15 K | 260.74 ± 12
413.15 K | 261.25 ± 12
414.15 K | 261.59 ± 12
415.15 K | 261.81 ± 12
416.15 K | 262.27 ± 12
417.15 K | 262.78 ± 12
418.15 K | 263.53 ± 12
419.15 K | 264.31 ± 12
420.15 K | 265.03 ± 12
421.15 K | 266.54 ± 12
422.15 K | 266.57 ± 12
423.15 K | 267.3 ± 12
424.15 K | 268.08 ± 12
425.15 K | 268.84 ± 12
426.15 K | 269.59 ± 12
427.15 K | 270.33 ± 13
428.15 K | 271.11 ± 13
429.15 K | 271.85 ± 13
430.15 K | 272.62 ± 13
431.15 K | 273.38 ± 13
432.15 K | 274.32 ± 13
433.15 K | 274.91 ± 13
434.15 K | 275.59 ± 13
435.15 K | 275.85 ± 13
436.15 K | 276.19 ± 13
437.15 K | 276.7 ± 13
438.15 K | 277.38 ± 13
439.15 K | 277.72 ± 13
440.15 K | 278.23 ± 13
441.15 K | 278.83 ± 13
442.15 K | 279.51 ± 13
443.15 K | 280.61 ± 13
444.15 K | 280.87 ± 13
445.15 K | 281.12 ± 13
446.15 K | 281.63 ± 13
447.15 K | 282.23 ± 13
448.15 K | 283.16 ± 13
449.15 K | 283.84 ± 13
450.15 K | 284.18 ± 13
451.15 K | 285.04 ± 13
452.15 K | 286.14 ± 13
453.15 K | 286.82 ± 13
454.15 K | 287.67 ± 13
455.15 K | 288.44 ± 13
456.15 K | 289.03 ± 13
457.15 K | 289.8 ± 13
458.15 K | 290.56 ± 13
459.15 K | 291.24 ± 14
460.15 K | 292.18 ± 14
461.15 K | 292.86 ± 14
462.15 K | 293.2 ± 14
463.15 K | 293.8 ± 14
464.15 K | 294.99 ± 14
465.15 K | 295.67 ± 14
466.15 K | 296.35 ± 14
467.15 K | 297.03 ± 14
468.15 K | 297.96 ± 14
469.15 K | 298.9 ± 14
470.15 K | 300.18 ± 14
471.15 K | 301.03 ± 14

From the NIST ThermoML archive (doi:10.1016/j.jct.2018.09.027)
